Key:
[1] = tested on: pilocarpine-induced seizures; test: Pilocarpine assay (seizure model); format: in vivo, adult male Sprague-Dawley rats; details: 100 mg/kg i.p., 20 min before pilocarpine hydrochloride 350 mg/kg i.p.; 30 minute observation
Method: A seizure model is performed using adult male Sprague-Dawley rats in accordance with the guidelines of the Canada Council on Animal Care and under the supervision of the Queen's University Animal Ethics Committee. This test procedure was adopted from previous work by Turski et al. (1984) Brain Res. 321:237. The test compounds are administered at 100 mg/kg by intraperitoneal (i.p.) injection. Seizures are induced 20 minutes afterwards by i.p. administration of pilocarpine hydrochloride (350 mg/kg). Protection is defined as the absence of clonic spasms over a 30 minute observation period after pilocarpine administration.

MES-induced seizure = test: Maximal electroshock seizure test (MES); format: in vivo, male Carworth Farms #1 mice or male Sprague-Dawley rats; design: key to MES 0.5 hr / MES 4 hr: — = no activity; details: for MES 0.5 hr / MES 4 hr: i.p. at 300, 100 and 30 mg/kg; for MES 0.5 hr: stimulus 0.5 hr after administration; for MES 4 hr: stimulus 4 hr after administration
Method: The MES and PTZ assays were performed by the Anticonvulsant Drug Development (ADD) Program in the Epilepsy Branch of the NIH (see, e.g., Stables and Kupferberg (1997) The NIH anticonvulsant Drug Development (ADD) Program: Preclinical Anticonvulsant Screening Project, Libby & Sons). All compounds were tested with either male Carworth Farms #1 mice or male Sprague-Dawley rats. Each test compound was administered via an i.p. injection at 300, 100, and 30 mg/kg. For the maximal electroshock seizure test (MES), corneal electrodes primed with a drop of electrolyte solution (0.9% NaCl) are applied to the eyes of the animal and an electrical stimulus (50 mA for mice, 150 mA for rats; 60 Hz) is delivered for 0.2 seconds at 0.5 and 4.0 hours after test compound administration. The animals are restrained by hand and are released at the moment of stimulation in order to permit observation of the seizure.

PTZ-induced seizure = test: Subcutaneous pentylenetetrazole (PTZ)-induced seizure model; format: in vivo, male Carworth Farms #1 mice or male Sprague-Dawley rats; design: key to PTZ 0.5 hr / PTZ 4 hr: — = no activity; details: for PTZ 0.5 hr / PTZ 4 hr: i.p. at 300, 100 and 30 mg/kg; for PTZ 0.5 hr: PTZ 0.5 hr after administration; for PTZ 4 hr: PTZ 4 hr after administration
Method: The MES and PTZ assays were performed by the Anticonvulsant Drug Development (ADD) Program in the Epilepsy Branch of the NIH (see, e.g., Stables and Kupferberg (1997) The NIH anticonvulsant Drug Development (ADD) Program: Preclinical Anticonvulsant Screening Project, Libby & Sons). All compounds were tested with either male Carworth Farms #1 mice or male Sprague-Dawley rats. Each test compound was administered via an i.p. injection at 300, 100, and 30 mg/kg. In the subcutaneous pentylenetetrazole (PTZ)-induced seizure model, seizures are induced 0.5 and 4 hrs after test compound administration by i.p. injection of PTZ (85 mg/kg in mice and 70 mg/kg in rats). Protection is defined as the inhibition of clonic spasms over a 30 min observation period.

[2] = tested on: spontaneous recurrent seizures; test: Spontaneous recurrent seizures (SRS) model of epilepsy; format: in vivo, adult male Sprague-Dawley rat; details: 20 mg/kg/day i.v. for 10 day
Method: The “spontaneous recurrent seizures” (SRS) model of epilepsy is used to evaluate candidate compounds in a model for Phase 1 epileptogenesis (see, e.g., Mello, E. et al., Epilepsia (1993) 34:985; Cavalheiro, J. et al., Epilepsia (1991) 32:778). In the SRS model, an adult male Sprague-Dawley rat (c. 260 g) is given pilocarpine by injection (380 mg/kg i.p.). Within 25 minutes, the animal enters status epilepticus, which lasts for 3 hours, and then diazepam is administered to stop seizures. The rat is allowed to spontaneously recover and is given food and water ad lib. and maintained on a 12 hour/12 hour light/dusk cycle. Beginning on about day 13-15, the rats develop spontaneous recurrent seizures, which occur at the rate of about 4-5 per week. The rats are videotaped 8 hours per day 5 days per week, and the videotapes are reviewed for behavioral seizures (including head nodding, forelimb clonus, and rearing), which are counted. The animals are watched for two months, permitting evaluation of a sufficient number of seizures. An experimental compound for evaluation can be administered at either of two times: Time 1, on Day 1, after the cessation of status epilepticus but before the onset of SRS; or Time 2, on Day 30, when the rats have been experiencing SRS for about two weeks. […]

[3] = @ 100 mg, i.p., 4 hr after administration

| Compound | Pilocarpine, activity in words [1] | MES 0.5 hr (MES-induced seizure) | MES 4 hr (MES-induced seizure) | PTZ 0.5 hr (PTZ-induced seizure) | PTZ 4 hr (PTZ-induced seizure) | other results |
| --- | --- | --- | --- | --- | --- | --- |
| COC(=O)CC(Nc1ccccc1OC)c1cc2ccccc2nc1Cl (stereo not shown) | Min. Active |  |  |  |  |  |
| O=C(CC(c1ccc2ccccc2n1)N(Cc1ccccc1)Cc1ccccc1)N(Cc1ccccc1)Cc1ccccc1 (stereo not shown) | Min. Active | — | — | — | — |  |
| NC(CC(=O)O)c1ccc2c(c1)OCCO2 (stereo not shown) | Min. Active |  |  |  |  |  |
| O=C1NC(=O)C(c2ccccc2)(c2ccccc2)N1 [phenytoin] |  |  |  |  |  | Preventing the onset of seizures (Time 1) ([2]; Time 1 (Day 1, after status epilepticus, before onset of SRS)): ineffective; Effective at decreasing seizure frequency by 50% or more (Time 2) ([2]; Time 2 (Day 30, established SRS)): 75% |
| CC(NC(CC(=O)O)c1ccc2ccccc2n1)c1ccccc1 (stereo not shown) | Active |  |  |  |  |  |
| COC(=O)CC(Nc1ccccc1OC)c1ccc2ccccc2n1 (stereo not shown) | Active |  |  |  |  |  |
| COC(=O)CC(c1ccc2ccccc2n1)N(Cc1ccccc1)Cc1ccccc1 (stereo not shown) | Inactive | — |  | — | — | MES 4 hr, fraction of animals (MES-induced seizure; [3]): 1/3 @ 100 mg |
| COC(=O)CC(NC(C)c1ccccc1)c1ccc2ccccc2n1 (stereo not shown) | Active | — | — | — | — |  |
| NC(CC(=O)O)c1cccs1 (stereo not shown) | Active | — | — | — | — |  |
| COC(=O)CC(NC(C)c1ccccc1)c1ccc2c(c1)cc(C)n2S(=O)(=O)c1ccccc1 (stereo not shown) | Active |  |  |  |  |  |
| COC(=O)CC(NC(C)c1ccccc1)c1cnc2ccccc2c1 (stereo not shown) | Min. Active | — | — | — | — |  |
| COC(=O)CC(NC(C)c1ccccc1)c1cc2ccccc2o1 (stereo not shown) | Active | — | — |  |  | PTZ 4 hr, fraction of animals (PTZ-induced seizure; [3]): 1/5 @ 100 mg; PTZ 0.5 hr, fraction of animals (PTZ-induced seizure; @ 300 mg, i.p., 0.5 hr after administration): 2/5 @ 300 mg |

— patent US20030114441A1, “Heterocyclic anti-epileptogenic agents and methods of use thereof” (Queen's University at Kingston, priority 2001, published 2003)
